Test results reported in patent US11464749B2, “Bismuth-thiol compositions and methods of use” (Microbion Corporation, priority 2018, dated 2022).
In brackets after ≈: the same amount, converted by molar mass. Several values for one entry are separate records, joined by “and”; a condition that tells them apart may be missing. Equal entries are not always repeated. Where two headings read alike, the source gives them in different places.

Key:
[1] = test system: C. parapsilosis; settings: C. parapsilosis MMX 2323 (ATCC 22019), cited from earlier work
[2] = test system: C. tropicalis; assay: Broth microdilution MIC, yeast (Example 11); format: cell-based; settings: FLU^R
[3] = test system: C. glabrata; assay: Broth microdilution MIC, yeast (Example 11); format: cell-based; settings: FLU^R
[4] = test system: C. parapsilosis; assay: Broth microdilution MIC, yeast (Example 11); format: cell-based
[5] = test system: C. albicans; assay: Broth microdilution MIC, yeast (Example 11); format: cell-based; settings: Sensitive
[6] = test system: P. aeruginosa; assay: FIC checkerboard assay; format: cell-based; settings: Pseudomonas aeruginosa, read-out: Drug B MIC
[7] = test system: Burkholderia spp.; assay: organism not typed; format: cell-based; settings: read-out: Drug B MIC
[8] = Particle size distribution of exposure aerosols (In-Tox Mercer Impactor); settings: rat efficacy study exposure atmospheres
[9] = test system: B. cenocepacia; assay: FIC checkerboard assay; format: cell-based; settings: for FICB: FIC of Tobramycin in combination with BisEDT; for MIC: Burkholderia cenocepacia, Tobramycin alone (panel with BisEDT), read-out: Drug B MIC
[10] = test system: B. cepacia; assay: FIC checkerboard assay; format: cell-based; settings: Burkholderia cepacia, Tobramycin alone (checkerboard with BisEDT), read-out: Drug B MIC

OC(Cn1cncn1)(Cn1cncn1)c1ccc(F)cc1F [fluconazole, Fluconazole, reference compound]
MIC, CLSI QC range ([1]; 24 hr): 0.5 to 4 µg/mL
MIC, CLSI QC range ([1]; 48 hr): 1 to 4 µg/mL
MIC ([2]; Candida tropicalis, 24 h, C. tropicalis MMX 7247, 24 hr, read-out: MIC): 64 µg/mL (≈ 209 µM)
MIC ([2]; Candida tropicalis, 24 h, C. tropicalis MMX 7248, 24 hr, read-out: MIC): 32 µg/mL (≈ 104 µM)
MIC ([2]; Candida tropicalis, 24 h, C. tropicalis MMX 7360, 24 hr, read-out: MIC): 64 µg/mL (≈ 209 µM)
MIC ([2]; Candida tropicalis, 48 h, C. tropicalis MMX 7247, 48 hr, read-out: MIC): > 64 µg/mL
MIC ([2]; Candida tropicalis, 48 h, C. tropicalis MMX 7248, 48 hr, read-out: MIC): > 64 µg/mL
MIC ([2]; Candida tropicalis, 48 h, C. tropicalis MMX 7360, 48 hr, read-out: MIC): > 64 µg/mL
MIC ([3]; Nakaseomyces glabratus, 24 h, C. glabrata MMX 7086, 24 hr, read-out: MIC): 32 µg/mL (≈ 104 µM)
MIC ([3]; Nakaseomyces glabratus, 24 h, C. glabrata MMX 7318, 24 hr, read-out: MIC): > 64 µg/mL
MIC ([3]; Nakaseomyces glabratus, 48 h, C. glabrata MMX 7086, 48 hr, read-out: MIC): 64 µg/mL (≈ 209 µM)
MIC ([3]; Nakaseomyces glabratus, 48 h, C. glabrata MMX 7318, 48 hr, read-out: MIC): > 64 µg/mL
MIC ([4]; Lodderomyces parapsilosis, 24 h, C. parapsilosis MMX 7370, FLU^R, 24 hr, read-out: MIC (converted)): 32 µg/mL (≈ 104 µM)
MIC ([4]; Lodderomyces parapsilosis, 24 h, C. parapsilosis MMX 7555, FLU^R, 24 hr, read-out: MIC (converted)): 32 µg/mL (≈ 104 µM)
MIC ([4]; Lodderomyces parapsilosis, 48 h, C. parapsilosis MMX 7370, FLU^R, 48 hr, read-out: MIC (converted)): 32 µg/mL (≈ 104 µM)
MIC ([4]; Lodderomyces parapsilosis, 48 h, C. parapsilosis MMX 7555, FLU^R, 48 hr, read-out: MIC (converted)): 64 µg/mL (≈ 209 µM)
MIC ([4]; Lodderomyces parapsilosis, ATCC22019, 24 h, C. parapsilosis MMX 2323 (ATCC 22019), QC, 24 hr, read-out: MIC (converted)): 2 µg/mL (≈ 6.53 µM)
MIC ([4]; Lodderomyces parapsilosis, ATCC22019, 48 h, C. parapsilosis MMX 2323 (ATCC 22019), QC, 48 hr, read-out: MIC (converted)): 2 µg/mL (≈ 6.53 µM)
MIC ([5]; Candida albicans, 24 h, C. albicans MMX 7039, 24 hr, read-out: MIC): 0.5 µg/mL (≈ 1.63 µM)
MIC ([5]; Candida albicans, 24 h, C. albicans MMX 7055, 24 hr, read-out: MIC): 0.25 µg/mL (≈ 0.816 µM)
MIC ([5]; Candida albicans, 48 h, C. albicans MMX 7039, 48 hr, read-out: MIC): 0.5 µg/mL (≈ 1.63 µM)
MIC ([5]; Candida albicans, 48 h, C. albicans MMX 7055, 48 hr, read-out: MIC): 0.5 µg/mL (≈ 1.63 µM)

NC[C@H]1O[C@H](O[C@H]2[C@H](O)[C@@H](O[C@H]3O[C@H](CO)[C@@H](O)[C@H](N)[C@H]3O)[C@H](N)C[C@@H]2N)[C@H](N)C[C@@H]1O [Tobramycin, reference compound]
MIC ([6]; P. aeruginosa 6977, Tobramycin alone (checkerboard with BisEDT)): 128 µg/mL
MIC ([6]; P. aeruginosa 7745, Tobramycin alone (checkerboard with BisEDT)): 0.5 µg/mL
MIC ([6]; P. aeruginosa 8798, Tobramycin alone (checkerboard with BisEDT)): 0.016 µg/mL
MIC ([6]; P. aeruginosa 9108, Tobramycin alone (checkerboard with BisEDT)): 0.5 µg/mL
MIC ([6]; Tobramycin alone, FIC panel with BisEDT, P. aeruginosa 6322): 128 µg/mL
MIC [7]: > 256 µg/mL
MMAD of exposure aerosol [8]: 2.81 μm
FICB ([9]; B. cenocepacia 548, per checkerboard row): 0.5
MICB ([9]; B. cenocepacia 548, MIC of Tobramycin in combination with BisEDT, per checkerboard row): 8 µg/mL and 16 µg/mL
FICB ([9]; B. cenocepacia 813, per checkerboard row): 0.5 and 1
MIC ([9]; B. cenocepacia 548): 32 µg/mL
MIC ([9]; B. cenocepacia 813): 256 µg/mL
MIC ([10]; B. cepacia 546): 32 µg/mL
MIC ([10]; B. cepacia 1793): 16 µg/mL

C[C@@H]1[C@H](O)[C@@H](C)/C=C/C=C/C=C/C=C/C=C/C=C/C=C/[C@H](O[C@@H]2O[C@H](C)[C@@H](O)[C@H](N)[C@@H]2O)C[C@@H]2O[C@](O)(C[C@@H](O)C[C@@H](O)[C@H](O)CC[C@@H](O)C[C@@H](O)CC(=O)O[C@H]1C)C[C@H](O)[C@H]2C(=O)O [Amphotericin B]
MIC, CLSI QC range ([1]; 48 hr): 0.5 to 4 µg/mL
MIC ([2]; C. tropicalis MMX 7247, 24 hr): 0.5 µg/mL (≈ 0.541 µM)
MIC ([2]; C. tropicalis MMX 7247, 48 hr): 1 µg/mL (≈ 1.08 µM)
MIC ([2]; C. tropicalis MMX 7248, 24 hr): 0.5 µg/mL (≈ 0.541 µM)
MIC ([2]; C. tropicalis MMX 7248, 48 hr): 1 µg/mL (≈ 1.08 µM)
MIC ([3]; C. glabrata MMX 7086, 24 hr): 0.5 µg/mL (≈ 0.541 µM)
MIC ([3]; C. glabrata MMX 7086, 48 hr): 1 µg/mL (≈ 1.08 µM)
MIC ([3]; C. glabrata MMX 7318, 24 hr): 0.5 µg/mL (≈ 0.541 µM)
MIC ([3]; C. glabrata MMX 7318, 48 hr): 1 µg/mL (≈ 1.08 µM)
MIC ([4]; C. parapsilosis MMX 2323 (ATCC 22019), QC, 24 hr): 0.5 µg/mL (≈ 0.541 µM)
MIC ([4]; C. parapsilosis MMX 2323 (ATCC 22019), QC, 48 hr): 1 µg/mL (≈ 1.08 µM)
MIC ([4]; C. parapsilosis MMX 7370, FLU^R, 24 hr): 0.5 µg/mL (≈ 0.541 µM)
MIC ([4]; C. parapsilosis MMX 7370, FLU^R, 48 hr): 1 µg/mL (≈ 1.08 µM)
MIC ([5]; C. albicans MMX 7055, 24 hr): 0.25 µg/mL (≈ 0.271 µM)
MIC ([5]; C. albicans MMX 7055, 48 hr): 0.5 µg/mL (≈ 0.541 µM)
